Test results as given in PMC7144195, “Synthesis, antitumor activity, and molecular docking study of 2-cyclopentyloxyanisole derivatives: mechanistic study of enzyme inhibition” (Journal of Enzyme Inhibition and Medicinal Chemistry, 2020).
Where two headings read alike, the source gives them in different places.

Key:
MCF-7 cell line = assay: In vitro antitumor MTT assay, MCF-7; assay type: cell-based
Experimental: (§3) The antitumor activity was performed by using the tetrazolium salt 3-(4,5-dimethyl-2-thiazolyl)-2,5-diphenyl-2H-tetrazolium bromide (MTT) assay in accordance with an established method[39].

PC3 cell line = assay: In vitro antitumor MTT assay, PC3; assay type: cell-based
Experimental: as §3

[1] = tested on: HePG2, HCT-116, MCF-7, PC3, and HeLa cell lines; assay: In vitro antitumor MTT assay, panel of five human cancer cell lines (text summaries); assay type: cell-based; conditions: for IC50: read-out: IC50, antitumor activity, range over the tested cancer cell lines
Experimental: (§1) The antitumor activity was performed by using the tetrazolium salt 3-(4,5-dimethyl-2-thiazolyl)-2,5-diphenyl-2H-tetrazolium bromide (MTT) assay in accordance with an established method.
(§2) Compounds 3a–c, 4a,b, 5a,b, 6a,b, 7a–e, 8, 9a–c, 10, 11, 12a–c, 13, and 14 were screened for their in vitro antitumor activity by using the standard 3-(4,5-dimethylthiazol-2-yl)-2,5-diphenyltetrazolium bromide (MTT) assay against five human cancers: HePG2, HCT-116, MCF-7, PC3, and HeLa cell lines. […].

HCT-116 cell line = assay: In vitro antitumor MTT assay, HCT-116; assay type: cell-based
Experimental: as §3

HeLa cell line = assay: In vitro antitumor MTT assay, HeLa; assay type: cell-based
Experimental: as §1, §2

HePG2 cell line = assay: In vitro antitumor MTT assay, HePG2; assay type: cell-based
Experimental: as §1, §2

[2] = Homo sapiens, MCF7; read-out: IC50 (µM) MCF-7
[3] = Homo sapiens, PC-3; read-out: IC50 (µM) PC3
[4] = Homo sapiens, range over (all or some of) HePG2, HCT-116, MCF-7, PC3, HeLa
[5] = Homo sapiens, HCT-116; read-out: IC50 (µM) HCT-116
[6] = Homo sapiens; read-out: IC50 (µM) HeLa
[7] = Homo sapiens, HepG2; read-out: IC50 (µM) HePG2
[8] = Homo sapiens, MCF7, read-out: IC50 (µM) MCF-7
[9] = Homo sapiens, PC-3, read-out: IC50 (µM) PC3
[10] = Homo sapiens, HCT-116, read-out: IC50 (µM) HCT-116
[11] = Homo sapiens, read-out: IC50 (µM) HeLa
[12] = Homo sapiens, HepG2, read-out: IC50 (µM) HePG2

Row | Structure (SMILES) | IC50 (MCF-7 cell line; [2]) | IC50 (PC3 cell line; [3]) | IC50 [1, 4] | IC50 (HCT-116 cell line; [5]) | IC50 (HeLa cell line; [6]) | melting point | IC50 (HePG2 cell line; [7]) | IC50 ([1]; range over (all or some of) HePG2, HCT-116, MCF-7, PC3, HeLa) | IC50 (MCF-7 cell line; [8]) | IC50 (PC3 cell line; [9]) | antitumor activity against the tested cancer cell lines (in words) ([1]; all tested cancer cell lines) | IC50 (HCT-116 cell line; [10]) | IC50 (HeLa cell line; [11]) | IC50 (HePG2 cell line; [12]) | IC50 ([1]; Homo sapiens)
1 | COc1ccc(-c2nc3c4ccccc4c4ccccc4c3n2-c2ccc(F)cc2)cc1OC1CCCC1 [Compound 7d, 2-(3-(Cyclopentyloxy)-4-methoxyphenyl)-1-(4-fluorophenyl)-1H-phenanthro[9,10-d]imidazole] | – | – | – | – | – | 290 to 292 °C | – | – | > 100 µM | > 100 µM | no antitumor activity | > 100 µM | > 100 µM | > 100 µM | –
2 | COc1ccc(C2NC(=S)NC3=C2CCCC3)cc1OC1CCCC1 (stereo not shown) [Compound 5a, 4-(3-(Cyclopentyloxy)-4-methoxyphenyl)-3,4,5,6,7,8-hexahydroquinazoline-2(1H)-thione] | 92.4 ± 5.2 µM | 79 ± 4.1 µM | – | 66.5 ± 3.8 µM | 84.3 ± 4.6 µM | 199 to 201 °C | 73.4 ± 3.7 µM | – | – | – | – | – | – | – | –
3 | COc1ccc(C(=S)N(C)C)cc1OC1CCCC1 [Compound 11, 3-(Cyclopentyloxy)-4-methoxy-N,N-dimethylbenzothioamide] | 94.3 ± 4.7 µM | 88.6 ± 5 µM | 88.6 to 96.8 µM | 96.8 ± 5.5 µM | 90.9 ± 4.9 µM | 189 to 191 °C | 91.2 ± 4.8 µM | – | – | – | – | – | – | – | –
4 | COc1ccc(C=C2CCCCCC2=O)cc1OC1CCCC1 [Compound 3c, 2-(3-(Cyclopentyloxy)-4-methoxybenzylidene)cycloheptanone] | > 100 µM | > 100 µM | – | 93.5 ± 5.1 µM | 81.7 ± 4.7 µM | 250 to 252 °C | 86.9 ± 4.5 µM | – | – | – | – | – | – | – | –
5 | COc1ccc(-c2nc3c4ccccc4c4ccccc4c3[nH]2)cc1OC1CCCC1 [Compound 7a, 2-(3-(Cyclopentyloxy)-4-methoxyphenyl)-1H-phenanthro[9,10-d]imidazole] | – | – | – | – | – | 290 to 292 °C | – | – | 89.8 ± 4.3 µM | > 100 µM | – | 90.3 ± 4.9 µM | 77.6 ± 4.6 µM | 78.2 ± 4.4 µM | 53.2 to 90.3 µM
6 | COc1ccc(-c2cc(-c3ccc(Cl)c(Cl)c3)[nH]c(=O)c2C#N)cc1OC1CCCC1 [Compound 12c, 4-(3-(Cyclopentyloxy)-4-methoxyphenyl)-6-(3,4-dichlorophenyl)-2-oxo-1,2-dihydropyridine-3-carbonitrile] | 66.1 ± 3.7 µM | 73.5 ± 3.8 µM | – | 83.4 ± 4.3 µM | 62.8 ± 3.9 µM | > 300 °C | 59.6 ± 4 µM | – | – | – | – | – | – | – | –
7 | COc1ccc(-c2nc3c4ccccc4c4ccccc4c3n2-c2ccc(C)cc2)cc1OC1CCCC1 [Compound 7c, 2-(3-(Cyclopentyloxy)-4-methoxyphenyl)-1-(4-methylphenyl)-1H-phenanthro[9,10-d]imidazole] | – | – | – | – | – | 291 to 294 °C | – | – | 65.3 ± 3.4 µM | 68.1 ± 3.5 µM | – | 81.2 ± 4.2 µM | 53.2 ± 3.7 µM | 57.1 ± 3.9 µM | 53.2 to 90.3 µM
8 | COc1ccc(-c2cc(-c3ccccc3)[nH]c(=O)c2C#N)cc1OC1CCCC1 [Compound 12a, 4-(3-(Cyclopentyloxy)-4-methoxyphenyl)-2-oxo-6-phenyl-1,2-dihydropyridine-3-carbonitrile] | 71.6 ± 3.9 µM | 79.8 ± 4 µM | – | 76 ± 3.6 µM | 65.7 ± 4.1 µM | > 300 °C | 45.2 ± 3.4 µM | – | – | – | – | – | – | – | –
9 | COc1ccc(C(=S)Nc2ccc(F)cc2)cc1OC1CCCC1 [Compound 10, 3-(Cyclopentyloxy)-N-(4-fluorophenyl)-4-methoxybenzothioamide] | 64.1 ± 3.1 µM | 47.3 ± 2.9 µM | 47.3 to 79.1 µM | 79.1 ± 3.8 µM | 52.5 ± 3.7 µM | 194 to 196 °C | 49.9 ± 3.5 µM | – | – | – | – | – | – | – | –
10 | COc1ccc(-c2nc3c4ccccc4c4ccccc4c3n2-c2ccc(Cl)cc2)cc1OC1CCCC1 [Compound 7e, 2-(3-(Cyclopentyloxy)-4-methoxyphenyl)-1-(4-chlorophenyl)-1H-phenanthro[9,10-d]imidazole] | – | – | – | – | – | 294 to 296 °C | – | – | 42.4 ± 2.2 µM | 47 ± 2.7 µM | – | 44.8 ± 2.3 µM | 38.1 ± 2.5 µM | 29.9 ± 2.1 µM | 29.8 to 47 µM
11 | COc1ccc(C2NC(=S)NC3=C2CCCCC3)cc1OC1CCCC1 (stereo not shown) [Compound 5b, 4-(3-(Cyclopentyloxy)-4-methoxyphenyl)-1,3,4,5,6,7,8,9-octahydro-2H-cyclohepta[d]pyrimidine-2-thione] | 81.2 ± 4.3 µM | 55.2 ± 3.1 µM | – | 61.1 ± 3.6 µM | 46.3 ± 3 µM | – | 59.1 ± 3.5 µM | – | – | – | – | – | – | – | –
12 | COc1cccc2c1C(=O)c1c(O)c3c(c(O)c1C2=O)C[C@@](O)(C(=O)CO)C[C@@H]3O[C@H]1C[C@H](N)[C@H](O)[C@H](C)O1 [DOX, doxorubicin, reference compound] | – | – | 4.17 to 8.87 µM | – | – | – | – | – | – | – | – | – | – | – | –

Further molecules by falling IC50 (MCF-7 cell line; [2]), results first:

Row | IC50 (MCF-7 cell line; [2]) | IC50 (PC3 cell line; [3]) | IC50 [1, 4] | IC50 (HCT-116 cell line; [5]) | IC50 (HeLa cell line; [6]) | melting point | IC50 (HePG2 cell line; [7]) | IC50 ([1]; range over (all or some of) HePG2, HCT-116, MCF-7, PC3, HeLa) | Structure (SMILES) | IC50 (MCF-7 cell line; [8]) | IC50 (PC3 cell line; [9]) | antitumor activity against the tested cancer cell lines (in words) ([1]; all tested cancer cell lines) | IC50 (HCT-116 cell line; [10]) | IC50 (HeLa cell line; [11]) | IC50 (HePG2 cell line; [12]) | IC50 ([1]; Homo sapiens)
13 | 60.5 ± 2.8 µM | 55.8 ± 3.2 µM | 29.8 to 47 µM | 70.5 ± 3.5 µM | 43.5 ± 2.9 µM | 286 to 287 °C | 41.8 ± 3 µM | 41.8 to 70.5 µM | COc1ccc(C2C3=C(CC(C)(C)CC3=O)NC3=C2C(=O)CC(C)(C)C3)cc1OC1CCCC1 [Compound 8, 9-(3-(Cyclopentyloxy)-4-methoxyphenyl)-3,3,6,6-tetramethyl-3,4,6,7,9,10-hexahydroacridine-1,8(2H,5H)-dione] | – | – | – | – | – | – | –
14 | 58.3 ± 2.7 µM | 61.5 ± 3.3 µM | – | 67.7 ± 3.5 µM | 45.7 ± 3.2 µM | > 300 °C | 38.1 ± 2.8 µM | – | COc1ccc(-c2cc(-c3ccc(C)cc3)[nH]c(=O)c2C#N)cc1OC1CCCC1 [Compound 12b, 4-(3-(cyclopentyloxy)-4-methoxyphenyl)-2-oxo-6-(p-tolyl)-1,2-dihydropyridine-3-carbonitrile] | – | – | – | – | – | – | –
15 | 56.1 ± 2.6 µM | 51.4 ± 3 µM | – | > 100 µM | 59.1 ± 3.8 µM | – | 96 ± 5.2 µM | – | COc1ccc(C=C2CCCC2=O)cc1OC1CCCC1 [Compound 3a, 2-(3-(Cyclopentyloxy)-4-methoxybenzylidene)cyclopentanone] | – | – | – | – | – | – | –
16 | 48.9 ± 2.3 µM | 33.4 ± 2.6 µM | 33.4 to 52.9 µM | 52.9 ± 2.7 µM | 40.6 ± 2.8 µM | 191 to 193 °C | 36.3 ± 2.5 µM | – | COc1ccc(C(=S)N2CCN(C(=O)OC(C)(C)C)CC2)cc1OC1CCCC1 [Compound 9c, tert-Butyl 4-(3-(cyclopentyloxy)-4-methoxyphenylcarbonothioyl)piperazine-1-carboxylate] | – | – | – | – | – | – | –
17 | 37.1 ± 2 µM | 31.5 ± 2.4 µM | 24.9 to 39.1 µM | 39.1 ± 2.2 µM | 28.4 ± 2.3 µM | 193 to 195 °C | 24.9 ± 1.9 µM | – | COc1ccc(C(=S)N2CCCCC2)cc1OC1CCCC1 [Compound 9b, (3-(Cyclopentyloxy)-4-methoxyphenyl)(piperidin-1-yl)methanethione] | – | – | – | – | – | – | –
18 | 35.2 ± 1.9 µM | 29.2 ± 2.3 µM | 29.2 to 48.1 µM | 48.1 ± 2.4 µM | 37.5 ± 2.5 µM | 190 to 192 °C | 32.9 ± 2.3 µM | – | COc1ccc(C(=S)N2CCOCC2)cc1OC1CCCC1 [Compound 9a, (3-(Cyclopentyloxy)-4-methoxyphenyl)(morpholino)methanethione] | – | – | – | – | – | – | –
19 | 28.6 ± 1.6 µM | 27.4 ± 2.1 µM | 18.5 to 30.5 µM | 30.5 ± 1.8 µM | 19.1 ± 1.7 µM | 230 to 232 °C | 18.5 ± 1.7 µM | – | COc1ccc(C2NC(=O)NC3=C2C(=O)CC(C)(C)C3)cc1OC1CCCC1 (stereo not shown) [Compound 6a, 4-(3-(Cyclopentyloxy)-4-methoxyphenyl)-7,7-dimethyl-4,6,7,8-tetrahydroquinazoline-2,5(1H,3H)-dione] | – | – | – | – | – | – | –
20 | 23.8 ± 1.5 µM | 19.3 ± 1.8 µM | – | 80.6 ± 3.9 µM | 26.1 ± 1.9 µM | 245 to 247 °C | 53.9 ± 3.7 µM | – | COc1ccc(C=C2CCCCC2=O)cc1OC1CCCC1 [Compound 3b, 2-(3-(Cyclopentyloxy)-4-methoxybenzylidene)cyclohexanone] | – | – | – | – | – | – | –
21 | 10.3 ± 1.1 µM | 17.9 ± 1.6 µM | 10.3 to 25.4 µM | 25.4 ± 1.7 µM | 13.5 ± 1.4 µM | 233 to 235 °C | 16.1 ± 1.4 µM | – | COc1ccc(C2NC(=S)NC3=C2C(=O)CC(C)(C)C3)cc1OC1CCCC1 (stereo not shown) [Compound 6b, 4-(3-(Cyclopentyloxy)-4-methoxyphenyl)-7,7-dimethyl-2-thioxo-2,3,4,6,7,8-hexahydroquinazolin-5(1H)-one] | – | – | – | – | – | – | –
22 | 9.62 ± 0.9 µM | 15.3 ± 1.3 µM | 5.86 to 20.1 µM | 34.9 ± 1.9 µM | 12.5 ± 1.2 µM | 265 to 267 °C | 20.1 ± 1.8 µM | – | COc1ccc(-c2nc3n(c(=O)c2C#N)C(=O)CS3)cc1OC1CCCC1 [Compound 14, 7-(3-(Cyclopentyloxy)-4-methoxyphenyl)-3,5-dioxo-2,3-dihydro-5H-thiazolo[3,2-a]pyrimidine-6-carbonitrile] | – | – | – | – | – | – | –
23 | 7.1 ± 0.49 µM | 7.7 ± 0.57 µM | 5.4 to 11.4 µM | 11.4 ± 1.26 µM | 6.2 ± 0.67 µM | – | 5.4 ± 0.25 µM | – | CN(C)C/C=C/C(=O)Nc1cc2c(Nc3ccc(F)c(Cl)c3)ncnc2cc1O[C@H]1CCOC1 [Afatinib, afatinib, reference compound] | – | – | – | – | – | – | –
